# Data published in patent US12110510B2, “Functional cortico-spinal-muscle assembled spheroids” (The Board of Trustees of the Leland Stanford Junior …, priority 2018, dated 2024).
# Entries after “also recorded” stand apart in the source; their conditions may differ.
# Legend:
# [1] = tested on: hCS-hSpS-hSkM assembloids; assay: Optogenetic stimulation of hCS in hCS-hSpS-hSkM assembloids, muscle displacement; format: cell-based, human; conditions: NBQX (50 μM) and APV (50 μM) added together; Chrim-expressing hCS, 625 nm
# Excerpt: Glutamate uncaging and optogenetic stimulation.
# Contraction analysis. […] The mean covariance per field was plotted.
# hSpS [2] = assay: Single-cell gene expression of hSpS with or without DAPT (BD Rhapsody); format: cell-based, human; conditions: hSpS differentiated in the presence of DAPT (2.5 μM, days 19, 21, 23) versus hSpS(−)DAPT; day 45
# Description: To generate hSpS, hiPS cell medium was supplemented with dual SMAD inhibitors until day 5 and the WNT activator CHIR 99021 (3 μM, Selleckchem) from day 4 to day 18. On day 6, spheroids were transferred to neural medium supplemented with RA (0.1 μM, Sigma-Aldrich), EGF (20 ng ml-1; R&D Systems) and FGF-2 (10 ng ml-1; R&D Systems), with addition of the SHH modulator smoothened agonist (SAG, 0.1 μM, Millipore) from day 11. From day 7, the medium was changed every other day. […] For hSpS, the Notch inhibitor DAPT (2.5 μM, STEMCELL technologies) was added on days 19, 21 and 23. From day 43 onwards, the medium was changed every four to five days.
# Single-cell gene expression (BD Rhapsody system). […] Cell labels and molecular indices were identified, and gene identity was determined by alignment against the gencode comprehensive hg19 reference. […] Gene expression profiles of 4,175 and 3,173 cells were recovered for hSpS with or without DAPT, respectively, with an average number of reads of ˜17,000, ˜2,400 molecules and ˜1,400 number of genes detected per cell with average molecular index coverage (that is, the number of times a molecule was sequenced) of 4.8. […]
# hSC [3] = assay: Gene expression analysis (qPCR) of neuronal subtype markers in hSC or hSC+D; format: cell-based, human; conditions: DAPT+ condition (2.5 μM) versus hSC; day 30
# Description: (§1) From day 4 in suspension, cultures were supplemented with the GSK-3 inhibitor CHIR 99021 (3 μM). On day 6, spheroids were transferred to neural medium containing neurobasal-A, B-27 supplement without vitamin A, GlutaMax (1:100), penicillin and streptomycin, and supplemented with retinoic acid (RA, 100 nM), EGF (20 ng/ml) and FGF-2 (10 ng/ml). On day 11 of differentiation spheroids were supplemented with the SHH pathway agonist Smoothened Agonist (SAG, 100 nM), in addition to the compounds described above. From day 7 onwards, media was changed every other day. For the hSC+D condition, spheroids received the gamma-secretase inhibitor DAPT (2.5 μM) on days 19, 21 and 23. From day 19, once the initial fate specification stage is finalized, hSCs were transferred to neural medium containing neurobasal-A, B-27 supplement without vitamin A, N−2 supplement, GlutaMax (1:100), penicillin and streptomycin (1:100), and supplemented with BDNF (20 ng/ml), IGF (10 ng/ml), L-Ascorbic Acid (AA, 200 nM) and cAMP (62.5 nM).
# hSC [4] = assay: Immunocytochemistry of hSC cytoarchitecture; format: cell-based, human; conditions: DAPT+ hSC condition; day 45
# Description: as §1
# [5] = tested on: hCS-hSpS-hSkM assembloids; assay: Glutamate uncaging in hCS-hSpS-hSkM assembloids, muscle contraction; format: cell-based, human
# Description: (§2) Generation of hSpS-hSkM or hCS-hSpS-hSkM assembloids. To generate neural-muscle assembloids, 3D hSkM that had been in differentiation medium for at least 10 days (see above) were removed from the silicone wells and placed on top of cell culture inserts (0.4 μm pore size; 353090, Corning) that were positioned in 6-well plates containing 2 ml of DMEM/F12 medium supplemented with 1% Non-Essential Amino Acids (NEAA, Life Technologies), 1% Insulin-Transferrin-Selenium (ITS, Life Technologies), 1% penicillin and streptomycin (Life Technologies), L-Ascorbic Acid (AA; 200 nM, Wako) and cAMP (50 nM, Sigma-Aldrich). Next, spheroids (either hSpS or hCS) were placed on the inserts containing 3D hSkM and arranged so that they were in contact with one another and were allowed to interact.
# (§3) Glutamate uncaging and optogenetic stimulation. Intact assembloids were imaged under environmentally controlled conditions (37° C., 5% CO2) using a 5× objective in a confocal microscope (Leica SP8). Assembloids, still in transwells, were incubated in the environmentally controlled chamber for 20-30 minutes before imaging. […] At a frame rate of 14.7 frames/sec, a typical stimulation experiment consisted of 500 frames acquired during pre-stimulation, 5 frames of UV stimulation (in specified region of interest, ROI) and 200 frames acquired during poststimulation. For optogenetic stimulation, five pulses of light (625 nm, 68 ms in duration each and ˜68 seconds apart) were delivered using an optical fiber-coupled LED (400 μmdiameter, 13.2 mW; Thorlabs) that was directed towards the hCS.
# hCS-hSkM assembloid = conditions: hCS assembled with hSkM, no hSpS
# Description: as §2
# as §3, with “For optogenetic stimulation, five pulses of light (625 nm, 68 ms in duration each and ˜68 seconds apart) were delivered using an optical fiber-coupled LED (400 μmdiameter, 13.2 mW; Thorlabs) that was directed towards the hCS.” left out
# hSpS-hSkM assembloids = conditions: 405 nm, in the presence of MNI-caged glutamate (3.3 mM)
# Description: as §2
# as §3, with “For optogenetic stimulation, five pulses of light (625 nm, 68 ms in duration each and ˜68 seconds apart) were delivered using an optical fiber-coupled LED (400 μmdiameter, 13.2 mW; Thorlabs) that was directed towards the hCS.” left out
# hSpS [6] = assay: Combinatorial growth factor matrix, gene expression of 16 markers at day 20; format: cell-based, human
# Excerpt: To establish hSpS differentiation conditions, we designed a combinatorial approach, where we used FGF-2, RA, and WNT and SHH modulators at varying concentrations following neural ectoderm specification of early spheroids. […] Briefly, hiPS cell colonies were lifted from plates using the enzyme dispase, moved to ultra-low attachment plates to form spheroids and exposed to dual SMAD inhibition as we have previously described. Starting on day 4 of in vitro differentiation, neural spheroids were exposed to 3 μM of the WNT activator CHIR-99021, and to 20 ng/ml EGF from day 6 onward. Neural spheroids also received a combination of RA (0.01 or 0.1 μM) and FGF-2 (0, 10 or 20 ng/ml) from day 6, and the SHH activator smoothened agonist (SAG; 0, 0.01, 0.1 or 1 μM) from day 11.
# For the combinatorial growth factor matrix, small molecules were added on the same days as described above, and the concentrations for dual SMAD inhibitors, CHIR 99021 and EGF were the same as above. From day 7, the neural medium was changed every other day until day 20, when spheres were collected. No DAPT was added for this experiment.
# Real-time quantitative PCR (qPCR). For qPCR analysis of spheroids, at least 2-3 spheroids were pooled per sample. mRNA was isolated using the RNeasy Mini kit and RNase-Free DNase set (Qiagen), and template cDNA was prepared by reverse transcription using the SuperScript Ill First-Strand Synthesis SuperMix for qRT-PCR (Life Technologies). qPCR was performed using Sybr Green (Roche) on a ViiA7 machine (Applied Biosystems, Life Technologies).
# [7] = tested on: hSpS-limb assembloids (mouse limb buds); assay: Contraction of hSpS-limb assembloids; format: cell-based; conditions: curare 100 μM; 14 days after fusion
# Description: Co-culture of mouse limb and spheroids. For mouse co-culture experiments, timed-pregnant females were sacrificed at E11.5, embryos were collected, and limb buds dissected (both forelimbs and hindlimbs were used for this experiment). Limbs and spheroids (at D25) were then assembled together by placing them in close proximity in a 1.5 ml microcentrifuge tube for 3 days in an incubator. One limb and one spheroid were placed per tube. On day 2 medium was carefully changed. Neural medium supplemented with N−2 supplement (Life Technologies, 17502048) was used. After assembly, mouse-spheroid cultures were placed in 24-well ultralow-attachment plates (Corning), and medium was changed every other day. For contraction quantification, assembloids were visualized using brightfield illumination in an EVOS FL Cell Imaging System (Life Technologies), and they were deemed to be contracting if they moved within a time-window of 30 seconds. Approval for mouse experiments was obtained from the Stanford University's Administrative Panel on Laboratory Animal Care (APLAC).
# hSkM = hSkM calcium imaging (Cal-590 AM) in 2D co-culture with hSpS; format: cell-based, human; conditions: curare 100 μM; 2D hSkM co-cultured with hSpS; 2-minute period
# Description: hSkM calcium imaging. For calcium imaging co-culture experiments, hSkM were plated on 24-well plates as described above and differentiated with Skeletal Muscle Cell Differentiation Medium. After 6-7 days of exposure to differentiation medium, hSkM were co-cultured with hSpS or hCS. […] One hSpS or hCS were placed per well. hSkM-spheroid co-cultures were left undisturbed for two days, and half medium was carefully replaced every other day thereafter. Calcium imaging was performed after 6-7 days of co-culture. Cultures were incubated with Cal-590 AM (10 μM, AAT Bioquest) and PowerLoad (1:100, Invitrogen) for 30 minutes at 37° C., washed once for 10 minutes with full medium and then imaged. A Leica SP8 confocal microscope with a resonant scanner was used for imaging. Spontaneous calcium activity was recorded for 2 min (10 frames per second) in 6-9 fields per well, and for each field the distance from the spheroid was measured.
# Calcium imaging. Calcium imaging data was processed using ImageJ (Fiji) and custom MATLAB routines. […] A total number of 798 (hSkM condition), 652 (hCS+hSkM condition), 1006 (hSpS+hSkM condition) and 727 (hSpS+hSkM+curare condition) hSkM fibers were analyzed. Following ROI registration, raw time-series movies were transformed to relative changes in fluorescence: dF/F(t)=(F(t)−F0)/F0, where F0 represented the 5th percentile value of the time series of each ROI. […]
# hCS-hSC-hSkM assembloid = assay: Glutamate uncaging in hCS-hSC-hSkM assembled spheroids (Example 1), hSkM contraction; conditions: tubocurarine 100 μM
# Description: For cortico-spinal-muscle assembled spheroids, hCS-hSC assembled spheroids were placed on tissue culture inserts and positioned so that hSC was in contact with the 3D hSkM constructs. Media was changed every other day.
# The FRAP module of the Leica SP8 confocal microscope was used to uncage glutamate using UV light.
compound,measurement,setting,value
N[C@@H](CCCP(=O)(O)O)C(=O)O [APV],Light induced responses (muscle displacement/contraction) upon hCS optogenetic stimulation,[1],completely abolished
C[C@H](NC(=O)Cc1cc(F)cc(F)c1)C(=O)N[C@H](C(=O)OC(C)(C)C)c1ccccc1 [DAPT],Increase in the proportion of motor neurons,hSpS [2],approximately three-fold
same,"Expression of some interneuron markers (GATA3, EN1, EVX1)",hSC [3],lower expression
same,Expression of the MN markers ISL1 and HB9,hSC [3],higher expression
same,Cytoarchitecture of hSC (position of cell bodies and axons),hSC [4],"cell bodies were found on the inside of the spheroid, while axons were found on the outside of hSC"
"COc1ccc([N+](=O)[O-])c2c1CCN2C(=O)CC[C@H](N)C(=O)O [MNI-caged glutamate, MNI-caged-L-glutamate]",Muscle contraction upon uncaging in hCS,[5]; 405 nm uncaging on hCS,robust muscle contraction
same,hSkM contraction upon stimulation of hSpS,[5]; 405 nm uncaging on hSpS,coupled with hSkM contraction
same,Response to glutamate uncaging of hCS,hCS-hSkM assembloid,did not elicit a response
same,hSkM contraction upon photostimulation of hSpS,hSpS-hSkM assembloids,resulted in hSkM contraction
CNC1CCC(N(Cc2cccc(-c3ccncc3)c2)C(=O)c2sc3ccccc3c2Cl)CC1 (centres unmarked) [SAG],"Expression of ventral progenitor marker genes OLIG2, NKX6-1, FOXA2 and post-mitotic markers CHX10 and ISL1",hSpS [6]; high SAG exposure,higher expression
"COc1cc2c3cc1Oc1cc(ccc1O)C[C@@H]1c4c(cc(OC)c(O)c4Oc4ccc(cc4)C[C@@H]3N(C)CC2)CC[N+]1(C)C [curare, (+)-tubocurarine chloride pentahydrate]",Contraction activity in hSpS-limb assembloids,[7],completely blocked
same,Increase in proportion of active hSkM (spontaneous calcium activity) in hSpS-hSkM,hSkM,blocked
same,Muscle contraction upon glutamate uncaging in hCS,[5]; 100 μm curare,blocked; also recorded: stops
same,hSkM contraction after glutamate uncaging on hSC,hCS-hSC-hSkM assembloid,blocked
FGF-2: growth factor FGF-2 (R&D Systems),Rostro-caudal fate (HOXA2 expression pattern),hSpS [6]; high levels of RA and low levels of FGF-2,more rostral fates
same,Rostro-caudal fate (HOXC9 expression),hSpS [6]; low levels of RA and high levels of FGF-2,more caudal fates
NBQX,Light induced responses (muscle displacement/contraction) upon hCS optogenetic stimulation,[1],completely abolished
